For test [1], the system named is oxidative stress (OS) in hippocampal slice cultures. The experiment in a line: Oxidative stress (OS) by CellROX fluorescence in hippocampal slice cultures (CA3). It is filed as cell-based, rat. On the procedure:
FIGS. 4A-4F Oxidative stress (OS) from SD and its reduction by IGF-1. (FIG. 4A) Normal cytoarchitecture of a hippocampal slice culture showing pyramidal neuron areas of CA1, dentate gyrus (DG), and the imaging zone for the inventors' work here (dotted line), CA3. (FIG. 4B) OS was measured using CellROX, a fixable fluorescent marker from Invitrogen. […] (FIG. 4D) This reduction versus control SD was significant (p<0.02; n=4 & 5). (FIG. 4E) CellROX can be used to measure relative OS in specific brain cell types.
FIGS. 9a-9f IGF-1 decreased oxidative stress from spreading depression. (FIG. 9a) NeuN immunohistochemical labeling of a hippocampal slice culture, for cytoarchitectural reference and to show the CA3 area of interest (dotted line box) used for quantification of oxidative stress (OS) via CellROX™ fluorescence intensity. (FIGS. 9b-c) Representative CellROX™-labeled hippocampal slices exposed to SD (FIG. 9b) and to 3-day IGF-1 incubation followed by spreading depression (SD) (FIG. 9c). Dotted line boxes illustrate CA3 areas of interest used for relative OS quantifications. […] Again, seven day treatments consisted of exposing cultures to IGF-1 for 12 hours a day for seven days. Note: IGF-1 exposure was continued for the additional 24 hour CellROX™ incubation. Scale bars=400 μm (a) and 200 μm (b and c). Comparisons between groups were made via ANOVA plus Holm-Sidak post hoc testing.
FIGS. 11a-11g IGF-1 decreased CA3 oxidative stress (OS) and its related hyperexcitability. […] Relative evoked excitability was determined as a sum of responses seen (e.g., responses of “2” and a “3” yielded an overall excitability score of five). […] (FIGS. 11d-e) Exemplary images of control (FIG. 11d) slice culture OS compared to increased slice OS induced by exposure to menadione (FIG. 11e). Calibration bar, 200 Dotted boxes indicate CA3 areas of interest used for relative OS quantifications (f and g).
Oxidative stress from SD preferentially rises in astrocytes and microglia, with the latter effect mitigated by IGF-1 (FIG. 13). The inventors have recently shown that spreading depression (SD), the most likely cause of migraine aura and perhaps migraine (Lauritzen and Kraig, 2005), occurs with increased oxidative stress (OS) and that OS, in turn, increases SD susceptibility (Grinberg et al., 2012). Reactive oxygen and nitrogen species that cause OS have both autocrine and paracrine signaling capacities that can affect SD susceptibility by altering excitability (Kishida and Klann, 2007). Accordingly, the inventors looked for the cellular origin of OS from SD. Here the inventors used hippocampal slice cultures (HSC) to probe for cell-specific changes in OS from SD. SD was induced trans-synaptically in rat HSCs using bipolar electrical stimuli at the dentate gyrus (Pusic et al., 2011). Six SDs were induced every 7-9 min over an hr, followed by 24 hr incubation in CellROX™, a fixable fluorogenic probe for measuring OS (Grinberg et al., 2012). HSCs were then fixed in 10% buffered formalin phosphate. Other fixatives (PLP, 4% paraformaldehyde) prevented detection of OS change. Tissue was then labeled for neurons (anti-NeuN), oligodendrocytes (anti-RIP), astrocytes (anti-GFAP), or for microglia (isolectin GS-IB4).

In test [2] the test system is SD in neocortex and hippocampus of anesthetized rat. The test is described as follows: SD threshold in vivo (0.5 M KCl injection) after nasal administration. Particulars: control 1-8 nL. On the procedure: Images show experimental setups for nasal administration and testing. (FIG. 7A) Nasal injection setup showing heat lamp and thermo-regulator that maintains temperature at 37° C. plus nose cone used to deliver isoflurane anesthesia. (FIG. 7B) Operator is shown administering nasal IGF-1 solution, which is performed in a fume hood to adequately vent isoflurane from nose cone. (FIG. 7C) Image illustrates standard electrophysiology setup. Anesthetized animal is placed into a standard electrophysiology holder and anesthesia maintained by a nose cone delivering 3% isoflurane in oxygen. Arterial oxygen saturation is monitored with a pulse-oximeter. Animals are warmed to 37.5° C. with a heating plate. SD is induced by progressively injecting larger volumes of 0.5 M KCl from an 8 μm diameter microelectrode. SD is registered with a second microelectrode used for DC recordings placed more caudally. After SD is evoked by a given injection pulse, the stimulating electrode is withdrawn and a volume re-injected under mineral oil. The diameter of the resultant KCl injection sphere is then measured off line using a compound microscope and the injection volume calculated. For example, in the above whole animal experiments it took 1-8 nL of 0.5 M KCl to evoke SD in control brain regions while after acute IGF-1 this amount rose to 67-109 nL. A day after IGF-1 treatment the volume needed to evoked SD was 34-48 nL. IFN-γ treatment required 338 nL of 0.5 M KCl a day after treatment and IL-11 required 67-200 nL.
Rats (FIGS. 6 and 7) are anesthetized with inhalational isoflurane and kept warm. While anesthetized, animals are placed in a supine position and 50 μL of sterile drug (i.e., IFN-γ, IGF-1, or IL-11) solution [or sterile saline vehicle (sham control)] is administered nasally by delivering 5 μL alternating between the left and right naris every 2 min over 20 minutes. Animals are given nasal drug treatments daily at the same time for 7 days before subsequent experiments. Doses for all 3 agents begin with the effective doses noted in our work using slice cultures (1×), then include others (0.1× and 10×). The inventors base this strategy on the fact that the effective culture dose for IGF-1 (40 ng/mL) closely approximates the dose used in vivo (143 μg/kg).
This approach was applied to measurement of SD threshold (FIG. 10) after treatment (FIG. 7) with nasally administered IGF-1 (150 μg), IL-11 (1 μg), IFN-γ (50,000 units), and insulin (20 μg). […] Resistance against SD was always greater in hippocampus compared to neocortex (n=4, controls; n=3, acutely after IGF-1; n=6, one day after IGF-1; n=6, one day after IL-11; n=6, one day after IFN-γ; and n=3, acutely after insulin).
Nasal administration followed by SD threshold evaluation in vivo. Vehicle or human recombinant IGF-1 (150 μg) is administered intranasally. SD threshold is established by injection of nanoliter volumes of 0.5 M KCl into neocortex or hippocampus (−2.0 mm from Bregma and 1.5 mm lateral from midline at either 750 μm or 2,800 μm into brain, respectively) using a thin-walled glass pipette and Picospritzer. Once a threshold is established, it is confirmed two more times, with an exemplary record from a vehicle-sham animal shown below. […] The diameter of the injected sphere is then measured using a compound microscope and used to calculate the injected volume, then moles of potassium. […]

Where [3] appears, read: a day after nasal treatment (IGF-1 150 μg; IL-11 1 μg; IFN-γ 50,000 units).

Entries after “also recorded” stand apart in the source; their conditions may differ.

Consider Insulin-like growth factor 1 [IGF-1], for which the “baseline slice culture OS versus control” value is reported as “significantly reduce baseline OS; also recorded: reduced slice culture OS” in test [1] (3-day IGF-1 alone) and “did not reduced slice culture OS” in test [1] (acute IGF-1 exposure alone). Also, the “decrease in OS from SD” value is reported as 30% in test [1] (3-day exposure to IGF-1); 73% in test [1] (7 days IGF-1, phasic); 20% in test [1] (acute treatment with IGF-1). In addition, in test [1] (7-day exposure to IGF-1 alone), the “reduction of baseline OS levels compared with controls” value stood at 26%. Besides, the “increased OS induced by SD” value is on record as “reduction in OS; also recorded: abrogated” in test [1] (IGF-1 (40 ng/mL) for 3 days prior to SD); “abrogated” in test [1] (IGF-1 acutely); “significantly reduced” in test [1] (IGF-1 for 7 days prior to SD, 12 hours a day). For the same molecule, the “OS induced by menadione versus control” value in test [1] (menadione exposure, without or with acute IGF-1) is listed as “abrogated; also recorded: reduced OS from menadione”; in test [1] (pretreatment with IGF-1 for 3 days) it was “abrogated; also recorded: reduced menadione-induced significant increase in OS”. The “volume of 0.5 M KCl needed to evoke SD” value in test [2] (setting [3]) lay within 34 to 48 nL; in test [2] (acutely after nasal treatment (IGF-1 150 μg; insulin 20 μg)), 67 to 109 nL.

B1: Interferon-gamma (protein, listed as Homo sapiens)
chain: MKYTSYILAFQLCIVLGSLGCYCQDPYVKEAENLKKYFNAGHSDVADNGTLFLGILKNWKEESDRKIMQSQIVSFYFKLFKNFKDDQSIQKSVETIKEDMNVKFFNSNKKKRDDFEKLTNYSVTDLNVQRKAIHELIQVMAELSPAAKTGKRKRSQMLFRGRRASQ
For B1, the OS entry in test [1] (transient (pulsed) IFN-γ 500 U/mL × 12 hours, assessed seven days later) is “OS is reduced; also recorded: similarly reduced”. Also, the “volume of 0.5 M KCl needed to evoke SD” value in test [2] (setting [3]) amounted to 338 nL.

For the origin of these results see patent US10391150B2, “Treatments for migraine and related disorders” (The University of Chicago, priority 2011, dated 2019).
